{"source": "paper PMC7247818", "about": "“Demonstration of Binding Induced Structural Plasticity in a SH2 Domain” (Frontiers in Molecular Biosciences, 2020)", "key": {"[1]": {"molecular_target": "T1, N-SH2 domain of PI3K, I62V variant (Homo sapiens, UniProt P27986, I383V)", "T1 construct": "made in house", "T1 sequence (P27986 333-428 I383V)": "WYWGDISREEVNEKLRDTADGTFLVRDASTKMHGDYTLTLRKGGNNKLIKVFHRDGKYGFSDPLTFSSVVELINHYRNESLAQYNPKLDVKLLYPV", "assay": "Stopped-flow binding kinetics, N-SH2 I62V", "settings": "10°C", "method": "(§1) N-SH2 wild-type and all the site-directed variants were expressed and purified as described previously ([Visconti et al., 2019]). All the mutants were obtained using a QuickChange Lightning Site-Directed Mutagenesis kit (Agilent technologies), accordingly to manufacturer instructions. Peptides with sequence TNSEDNpYVPMNPG mimicking wild-type Gab2 and TNSEDNpYVPANPG mimicking the M457A variant of Gab2 were purchased from GenScript Biotech Corporation.\n(§2) Binding kinetics experiments were performed using a single-mixing SX-18 stopped-flow instrument (Applied Photophysics); all binding experiments were conducted in 50 mM Hepes pH 7.4 300 mM NaCl at 10°C. Excitation was at 280 nm and emission was collected using a […] cut-off glass filter. Pseudo-first order binding experiments were performed mixing a constant concentration of dansylated Gab2_448–460 and Gab2_448–460 M457A (1 μM) vs. N-SH2 wt and its mutants at concentrations ranging from […]. For each N-SH2 concentration, usually 5 individual traces were averaged and in all cases the fluorescence time courses obtained was satisfactorily fitted by using a single exponential equation.\n(§3) One of the aims of this study is to depict the molecular details of the interaction between the N-SH2 domain of PI3K and Gab2. A powerful strategy to achieve this goal relies on perturbing the system by producing conservative site-directed variants while monitoring the effect of mutations on the association and dissociation rate constants between the interacting partners (kon and koff respectively). Thus, we designed and successfully produced 21 site-directed variants of the N-SH2 domain and challenged them vs. a peptide mimicking the region of Gab2 ranging from residue 448–460 (Gab2_448–460), containing the pY-X-X-M motif that is specifically recognized by the N-SH2 domain ([Waksman et al., 1992]; [Songyang et al., 1993]). The choise of mutations was designed in analogy to phi-value analysis methodology in protein folding studies ([Fersht and Sato, 2004]). […] To monitor binding by fluorescence, a dansyl group was added at the N-terminus of the peptide. The binding reaction was monitored by stopped-flow experiments following the change in FRET signal, taking advantage of the two Trp residues on the N-SH2 domain in positions 12 and 14 as fluorescence donor and the dansyl group on Gab2_448–460 as acceptor. The experiments were performed in pseudo-first order conditions with Gab2_448–460 at fixed concentration of 1 μM rapidly mixed vs. large excess of N-SH2 wt and its variants, ranging from 4 to 14 μM, in buffer Hepes 50 mM, NaCl 300 mM, pH 7.4, at 10°C.\n(§4) with kon being the slope of the line and koff the intercept with the y-axis. Since indirect calculation of koff obtained by extrapolation is associated with high experimental error, we performed displacement experiments to directly measure koff by challenging a pre-incubated complex of dansylated Gab2_448–460 and N-SH2 domain both at the concentration of 1 μM vs. a large excess of non-dansylated Gab2_448–460 (50 μM). Kinetic parameters extracted from data together with the calculated changes in activation and equilibrium free energies are reported in Table 1. Analysis of kinetic data highlights that T48S, L51A, and L59A variations cause a detectable decrease of the affinity of the domain for Gab2_448–460 of ∼10-fold, affecting both the kon and koff. […] Since L99 residue is part of the binding pocket, this dramatic effect on the binding affinity is expected.\n(§5) SH2 domains bind ligands with a phosphorylated tyrosine in their sequence. The N-SH2 domain of PI3K is known to recognize a specific consensus sequences that present a methionine in position +3 in respect to the phosphotyrosine (M457 in Gab2). […]"}, "[2]": {"molecular_target": "T2, N-SH2 domain of PI3K, I17V variant (Homo sapiens, UniProt P27986, I338V)", "T2 construct": "made in house", "T2 sequence (P27986 333-428 I338V)": "as the sequence (P27986 333-428 I383V) above, with I6V, V51I counted along it", "assay": "Stopped-flow binding kinetics, N-SH2 I17V", "settings": "10°C", "method": "as §1, §2, §3, §4, §5"}, "[3]": {"molecular_target": "T3, N-SH2 domain of PI3K, L51A variant (Homo sapiens, UniProt P27986, L372A)", "T3 construct": "made in house", "T3 sequence (P27986 333-428 L372A)": "as the sequence (P27986 333-428 I383V) above, with L40A, V51I counted along it", "assay": "Stopped-flow binding kinetics, N-SH2 L51A", "settings": "10°C", "method": "as §1, §2, §3, §4, §5"}, "[4]": {"molecular_target": "T4, N-SH2 domain of PI3K, V101A variant (Homo sapiens, UniProt P27986, V422A)", "T4 construct": "made in house", "T4 sequence (P27986 333-428 V422A)": "as the sequence (P27986 333-428 I383V) above, with V51I, V90A counted along it", "assay": "Stopped-flow binding kinetics, N-SH2 V101A", "settings": "10°C", "method": "as §1, §2, §3, §4, §5"}, "[5]": {"molecular_target": "T5, N-SH2 domain of PI3K, P74A variant (Homo sapiens, UniProt P27986, P395A)", "T5 construct": "made in house", "T5 sequence (P27986 333-428 P395A)": "as the sequence (P27986 333-428 I383V) above, with V51I, P63A counted along it", "assay": "Stopped-flow binding kinetics, N-SH2 P74A", "settings": "10°C", "method": "as §1, §2, §3, §4, §5"}, "[6]": {"molecular_target": "T6, N-SH2 domain of PI3K, T29S variant (Homo sapiens, UniProt P27986, T350S)", "T6 construct": "made in house", "T6 sequence (P27986 333-428 T350S)": "as the sequence (P27986 333-428 I383V) above, with T18S, V51I counted along it", "assay": "Stopped-flow binding kinetics, N-SH2 T29S", "settings": "10°C", "method": "as §1, §2, §3, §4, §5"}, "[7]": {"molecular_target": "T7, N-SH2 domain of PI3K, V80A variant (Homo sapiens, UniProt P27986, V401A)", "T7 construct": "made in house", "T7 sequence (P27986 333-428 V401A)": "as the sequence (P27986 333-428 I383V) above, with V51I, V69A counted along it", "assay": "Stopped-flow binding kinetics, N-SH2 V80A", "settings": "10°C", "method": "as §1, §2, §3, §4, §5"}, "[8]": {"molecular_target": "T8, N-SH2 domain of PI3K, V81A variant (Homo sapiens, UniProt P27986, V402A)", "T8 construct": "made in house", "T8 sequence (P27986 333-428 V402A)": "as the sequence (P27986 333-428 I383V) above, with V51I, V70A counted along it", "assay": "Stopped-flow binding kinetics, N-SH2 V81A", "settings": "10°C", "method": "as §1, §2, §3, §4, §5"}, "[9]": {"molecular_target": "T9, N-SH2 domain of PI3K, L35A variant (Homo sapiens, UniProt P27986, L356A)", "T9 construct": "made in house", "T9 sequence (P27986 333-428 L356A)": "as the sequence (P27986 333-428 I383V) above, with L24A, V51I counted along it", "assay": "Stopped-flow binding kinetics, N-SH2 L35A", "settings": "10°C", "method": "as §1, §2\n(§6) One of the aims of this study is to depict the molecular details of the interaction between the N-SH2 domain of PI3K and Gab2. […] To monitor binding by fluorescence, a dansyl group was added at the N-terminus of the peptide. The binding reaction was monitored by stopped-flow experiments following the change in FRET signal, taking advantage of the two Trp residues on the N-SH2 domain in positions 12 and 14 as fluorescence donor and the dansyl group on Gab2_448–460 as acceptor. […]\n(§7) with kon being the slope of the line and koff the intercept with the y-axis. […] Kinetic parameters extracted from data together with the calculated changes in activation and equilibrium free energies are reported in Table 1. […]"}, "[10]": {"molecular_target": "T10, N-SH2 domain of PI3K, T48S variant (Homo sapiens, UniProt P27986, T369S)", "T10 construct": "made in house", "T10 sequence (P27986 333-428 T369S)": "as the sequence (P27986 333-428 I383V) above, with T37S, V51I counted along it", "assay": "Stopped-flow binding kinetics, N-SH2 T48S", "settings": "10°C", "method": "as §1, §2, §6, §7"}, "N-SH2 domain of PI3K, WT": {"molecular_target": "T11, N-SH2 domain of PI3K, WT (Homo sapiens, UniProt P27986)", "T11 construct": "made in house", "T11 sequence (P27986 333-428 limits assumed)": "as the sequence (P27986 333-428 I383V) above, with V51I counted along it", "assay": "Stopped-flow binding kinetics, N-SH2 WT", "settings": "displacement of 1 μM complex by 50 μM non-dansylated Gab2_448–460, 50 mM Hepes pH 7.4, 300 mM NaCl, 10°C", "method": "as §1, §2, §3, §4, §5"}, "[11]": {"settings": "displacement experiment, pH 7.4, 300 mM NaCl"}, "[12]": {"settings": "stopped-flow FRET, 1 μM dansylated peptide, 50 mM Hepes pH 7.4, 300 mM NaCl"}, "[13]": {"settings": "stopped-flow kinetics, pH 7.4, 300 mM NaCl"}}, "note": "Where a SMILES comes first, the peptide text is derived from it."}
{"smiles": "CSCC[C@H](NC(=O)[C@@H]1CCCN1C(=O)[C@@H](NC(=O)[C@H](Cc1ccc(OP(=O)(O)O)cc1)NC(=O)[C@H](CC(N)=O)NC(=O)[C@H](CC(=O)O)NC(=O)[C@H](CCC(=O)O)NC(=O)[C@H](CO)NC(=O)[C@H](CC(N)=O)NC(=O)[C@@H](N)[C@@H](C)O)C(C)C)C(=O)N[C@@H](CC(N)=O)C(=O)N1CCC[C@H]1C(=O)NCC(=O)O", "note": "[Gab2_448–460] (HELM PEPTIDE1{T.N.S.E.D.N.[O=C([C@H](Cc1ccc(OP(=O)(O)O)cc1)N[*:1])[*:2]].V.P.M.N.P.G}$$$$V2.0)", "values": [{"measurement": "koff", "setting": "[1]; [11]", "result": "4.5 ± 0.2", "unit": "s⁻¹"}, {"measurement": "kon", "setting": "[1]; [12]", "result": "1.55e+07 ± 1.4e+06", "unit": "M⁻¹ s⁻¹"}, {"measurement": "Kd", "setting": "[1]; [13]", "result": "300 ± 100", "unit": "nM"}, {"measurement": "koff", "setting": "[2]; [11]", "result": "4.5 ± 0.2", "unit": "s⁻¹"}, {"measurement": "kon", "setting": "[2]; [12]", "result": "2.44e+07 ± 1.7e+06", "unit": "M⁻¹ s⁻¹"}, {"measurement": "Kd", "setting": "[2]; [13]", "result": "200 ± 100", "unit": "nM"}, {"measurement": "koff", "setting": "[3]; [11]", "result": "18 ± 1", "unit": "s⁻¹"}, {"measurement": "kon", "setting": "[3]; [12]", "result": "5.6e+06 ± 1.1e+06", "unit": "M⁻¹ s⁻¹"}, {"measurement": "Kd", "setting": "[3]; [13]", "result": "3.2 ± 0.2", "unit": "µM"}, {"measurement": "koff", "setting": "[4]; [11]", "result": "7 ± 0.4", "unit": "s⁻¹"}, {"measurement": "kon", "setting": "[4]; [12]", "result": "1.34e+07 ± 400000", "unit": "M⁻¹ s⁻¹"}, {"measurement": "Kd", "setting": "[4]; [13]", "result": "500 ± 100", "unit": "nM"}, {"measurement": "koff", "setting": "[5]; [11]", "result": "27 ± 1", "unit": "s⁻¹"}, {"measurement": "kon", "setting": "[5]; [12]", "result": "4.87e+07 ± 1.5e+06", "unit": "M⁻¹ s⁻¹"}, {"measurement": "Kd", "setting": "[5]; [13]", "result": "600 ± 100", "unit": "nM"}, {"measurement": "koff", "setting": "[6]; [11]", "result": "4.3 ± 0.2", "unit": "s⁻¹"}, {"measurement": "kon", "setting": "[6]; [12]", "result": "1.75e+07 ± 500000", "unit": "M⁻¹ s⁻¹"}, {"measurement": "Kd", "setting": "[6]; [13]", "result": "300 ± 100", "unit": "nM"}, {"measurement": "koff", "setting": "[7]; [11]", "result": "4.4 ± 0.2", "unit": "s⁻¹"}, {"measurement": "kon", "setting": "[7]; [12]", "result": "1.6e+07 ± 1.2e+06", "unit": "M⁻¹ s⁻¹"}, {"measurement": "Kd", "setting": "[7]; [13]", "result": "300 ± 100", "unit": "nM"}, {"measurement": "koff", "setting": "[8]; [11]", "result": "4.5 ± 0.2", "unit": "s⁻¹"}, {"measurement": "kon", "setting": "[8]; [12]", "result": "1.2e+07 ± 1.4e+06", "unit": "M⁻¹ s⁻¹"}, {"measurement": "Kd", "setting": "[8]; [13]", "result": "400 ± 100", "unit": "nM"}, {"measurement": "koff", "setting": "[9]; [11]", "result": "6.7 ± 0.3", "unit": "s⁻¹"}, {"measurement": "kon", "setting": "[9]; [12]", "result": "7e+06 ± 600000", "unit": "M⁻¹ s⁻¹"}, {"measurement": "Kd", "setting": "[9]; [13]", "result": "1000 ± 100", "unit": "nM"}, {"measurement": "koff", "setting": "[10]; [11]", "result": "23 ± 1", "unit": "s⁻¹"}, {"measurement": "kon", "setting": "[10]; [12]", "result": "6.4e+06 ± 500000", "unit": "M⁻¹ s⁻¹"}, {"measurement": "Kd", "setting": "[10]; [13]", "result": "3.7 ± 0.1", "unit": "µM"}, {"measurement": "koff", "setting": "N-SH2 domain of PI3K, WT", "result": "3.9 ± 0.2", "unit": "s⁻¹"}]}
